Usually EC50 stands for the concentration giving half of the maximal effect.

Assay [1] concerns the target T1, Transient receptor potential cation channel subfamily M member 8 (Homo sapiens, UniProt Q7Z2W7). In words: Agonist activity at full length recombinant human TRPM8 expressed in HEK293 cells assessed as increase in intracellular Ca2+ level pre-incubated for 5 mins by Fluo4-AM dye-based fluorescence assay. Type of assay: cell-based.
Target sequence in this assay (Q7Z2W7 whole entry): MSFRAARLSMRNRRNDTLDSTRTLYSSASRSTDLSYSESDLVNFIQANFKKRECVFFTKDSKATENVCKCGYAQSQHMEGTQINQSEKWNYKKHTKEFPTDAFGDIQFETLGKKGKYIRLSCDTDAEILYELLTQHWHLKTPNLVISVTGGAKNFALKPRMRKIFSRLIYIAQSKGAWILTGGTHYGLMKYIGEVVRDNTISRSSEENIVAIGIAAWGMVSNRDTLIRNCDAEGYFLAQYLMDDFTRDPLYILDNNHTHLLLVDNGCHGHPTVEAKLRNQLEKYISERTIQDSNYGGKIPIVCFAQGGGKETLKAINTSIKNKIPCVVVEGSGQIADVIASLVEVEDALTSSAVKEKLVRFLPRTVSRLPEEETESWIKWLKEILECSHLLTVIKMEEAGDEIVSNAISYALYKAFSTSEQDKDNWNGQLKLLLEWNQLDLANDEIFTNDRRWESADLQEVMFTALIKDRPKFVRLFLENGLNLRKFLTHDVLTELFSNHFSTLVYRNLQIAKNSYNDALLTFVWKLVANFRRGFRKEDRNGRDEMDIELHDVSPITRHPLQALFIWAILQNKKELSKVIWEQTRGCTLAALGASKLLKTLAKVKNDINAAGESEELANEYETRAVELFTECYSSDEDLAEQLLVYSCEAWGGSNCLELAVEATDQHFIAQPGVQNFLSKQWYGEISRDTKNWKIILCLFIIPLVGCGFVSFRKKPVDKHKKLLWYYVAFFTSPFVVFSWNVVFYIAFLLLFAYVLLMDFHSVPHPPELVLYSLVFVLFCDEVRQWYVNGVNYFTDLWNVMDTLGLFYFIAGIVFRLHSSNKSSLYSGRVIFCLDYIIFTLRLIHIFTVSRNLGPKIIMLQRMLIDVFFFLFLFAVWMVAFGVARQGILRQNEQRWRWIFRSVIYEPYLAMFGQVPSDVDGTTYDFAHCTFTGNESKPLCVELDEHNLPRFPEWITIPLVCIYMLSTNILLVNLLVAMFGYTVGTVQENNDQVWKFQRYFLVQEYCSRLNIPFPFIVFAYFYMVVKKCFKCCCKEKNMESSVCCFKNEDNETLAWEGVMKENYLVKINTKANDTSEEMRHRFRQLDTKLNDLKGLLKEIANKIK
Assay [2] has as its target Transient receptor potential cation channel subfamily A member 1 (Homo sapiens, UniProt O75762). The assay is described as follows: Agonist activity at recombinant human TRPA1 expressed in HEK293 cells assessed as increase in intracellular Ca2+ level pre-incubated for 5 mins by Fluo4-AM dye-based fluorescence assay. Type of assay: cell-based.
Assay [3] is filed under the species Homo sapiens. In words: Induction of cooling effect in human at 0.02% measured immediately after washing by simple mouth washing method. Type of assay: functional.
Assay [4] concerns the target Transient receptor potential cation channel subfamily V member 4 (Homo sapiens) (UniProt Q9HBA0). In words: Agonist activity at recombinant human TRPV4 expressed in HEK293 cells assessed as increase in intracellular Ca2+ level pre-incubated for 5 mins by Fluo4-AM dye-based fluorescence assay. It counts as cell-based.
Assay [5] has as its target T2, Transient receptor potential cation channel subfamily V member 3 (Homo sapiens) (UniProt Q8NET8).
T2 sequence (whole entry): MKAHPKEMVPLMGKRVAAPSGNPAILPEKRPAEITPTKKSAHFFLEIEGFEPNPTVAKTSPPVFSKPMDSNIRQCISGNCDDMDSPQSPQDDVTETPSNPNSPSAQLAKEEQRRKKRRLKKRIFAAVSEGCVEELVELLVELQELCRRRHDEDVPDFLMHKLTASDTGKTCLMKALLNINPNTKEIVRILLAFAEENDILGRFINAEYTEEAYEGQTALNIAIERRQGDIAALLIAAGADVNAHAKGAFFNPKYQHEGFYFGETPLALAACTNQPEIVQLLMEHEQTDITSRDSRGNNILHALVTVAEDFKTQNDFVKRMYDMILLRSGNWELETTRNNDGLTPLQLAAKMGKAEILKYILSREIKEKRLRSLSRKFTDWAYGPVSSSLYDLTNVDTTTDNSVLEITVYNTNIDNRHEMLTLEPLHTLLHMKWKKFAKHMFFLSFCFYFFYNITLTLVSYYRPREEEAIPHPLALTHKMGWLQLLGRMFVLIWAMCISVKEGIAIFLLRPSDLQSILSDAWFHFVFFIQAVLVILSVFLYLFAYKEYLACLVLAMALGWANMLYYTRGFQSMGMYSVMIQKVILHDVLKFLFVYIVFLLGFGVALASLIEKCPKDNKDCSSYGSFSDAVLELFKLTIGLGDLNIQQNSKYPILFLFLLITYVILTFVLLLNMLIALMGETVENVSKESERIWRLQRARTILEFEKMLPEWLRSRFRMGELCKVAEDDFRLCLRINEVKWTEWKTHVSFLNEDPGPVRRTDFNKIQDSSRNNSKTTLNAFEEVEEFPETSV
In words: Agonist activity at recombinant human TRPV3 expressed in HEK293 cells assessed as increase in intracellular Ca2+ level pre-incubated for 5 mins by Fluo4-AM dye-based fluorescence assay. It counts as cell-based.

The target of assay [6] is T1, Transient receptor potential cation channel subfamily M member 8. The assay is described as follows: Agonist activity at full length recombinant human TRPM8 expressed in HEK293 cells assessed as additive potentiation of 1 and 3 uM l-menthol-stimulated intracellular Ca2+ level at 0.03 uM by Fluo4-AM dye-based fluorescence assay. It counts as cell-based.
Target sequence in this assay (Q7Z2W7 whole entry, looked up): as the sequence (Q7Z2W7 whole entry) above
The species named for assay [7] is Homo sapiens. In words: Induction of cooling effect in human at 0.02% measured after few mins after washing by simple mouth washing method. Type of assay: functional.
For assay [8], the target named is Transient receptor potential cation channel subfamily V member 1 (Homo sapiens) (UniProt Q8NER1). In words: Agonist activity at recombinant human TRPV1 expressed in HEK293 cells assessed as increase in intracellular Ca2+ level pre-incubated for 5 mins by Fluo4-AM dye-based fluorescence assay. Type of assay: cell-based.
In assay [9] the test system is Transient receptor potential cation channel subfamily M member 8 (Homo sapiens), Q7Z2W7 [Y745H]. The assay is described as follows: Agonist activity at full length recombinant human TRPM8 Y745H mutant expressed in HEK293 cells at 0.3 to 3 uM by Fluo4-AM dye-based fluorescence assay. It counts as cell-based.

The source made the active and inactive calls. No cut-off for these calls is given here. Bounds are passed on as bounds.

Transient receptor potential cation channel subfamily A member 1, sequence (O75762 whole entry): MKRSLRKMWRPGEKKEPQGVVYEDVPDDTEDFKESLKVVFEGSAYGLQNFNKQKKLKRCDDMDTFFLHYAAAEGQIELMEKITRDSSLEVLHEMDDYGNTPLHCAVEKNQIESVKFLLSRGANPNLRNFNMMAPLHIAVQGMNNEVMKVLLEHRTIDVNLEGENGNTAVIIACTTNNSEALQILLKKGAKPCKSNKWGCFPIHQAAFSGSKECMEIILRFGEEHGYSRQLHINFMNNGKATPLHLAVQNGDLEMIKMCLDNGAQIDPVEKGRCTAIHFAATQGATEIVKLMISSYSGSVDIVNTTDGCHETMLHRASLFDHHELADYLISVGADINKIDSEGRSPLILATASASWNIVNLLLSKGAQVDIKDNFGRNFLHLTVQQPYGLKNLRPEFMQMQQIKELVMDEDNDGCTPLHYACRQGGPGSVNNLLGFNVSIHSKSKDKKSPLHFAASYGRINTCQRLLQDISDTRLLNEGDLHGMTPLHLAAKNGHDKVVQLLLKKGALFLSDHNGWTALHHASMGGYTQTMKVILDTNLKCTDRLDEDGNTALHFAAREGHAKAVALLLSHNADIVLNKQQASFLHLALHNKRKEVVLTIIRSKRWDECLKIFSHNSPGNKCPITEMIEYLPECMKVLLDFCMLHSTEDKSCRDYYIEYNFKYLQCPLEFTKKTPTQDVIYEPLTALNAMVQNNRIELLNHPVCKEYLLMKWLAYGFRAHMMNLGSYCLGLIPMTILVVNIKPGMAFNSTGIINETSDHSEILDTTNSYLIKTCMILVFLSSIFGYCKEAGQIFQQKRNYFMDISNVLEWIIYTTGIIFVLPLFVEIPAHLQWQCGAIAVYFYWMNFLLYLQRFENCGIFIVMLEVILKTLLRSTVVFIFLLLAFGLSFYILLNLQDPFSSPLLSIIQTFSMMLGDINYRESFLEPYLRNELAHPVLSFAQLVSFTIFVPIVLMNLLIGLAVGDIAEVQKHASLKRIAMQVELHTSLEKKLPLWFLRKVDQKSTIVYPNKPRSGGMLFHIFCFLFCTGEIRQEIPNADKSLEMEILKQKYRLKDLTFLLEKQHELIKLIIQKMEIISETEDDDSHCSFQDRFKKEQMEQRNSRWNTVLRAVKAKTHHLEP
Transient receptor potential cation channel subfamily V member 1 (Homo sapiens), sequence (Q8NER1 whole entry): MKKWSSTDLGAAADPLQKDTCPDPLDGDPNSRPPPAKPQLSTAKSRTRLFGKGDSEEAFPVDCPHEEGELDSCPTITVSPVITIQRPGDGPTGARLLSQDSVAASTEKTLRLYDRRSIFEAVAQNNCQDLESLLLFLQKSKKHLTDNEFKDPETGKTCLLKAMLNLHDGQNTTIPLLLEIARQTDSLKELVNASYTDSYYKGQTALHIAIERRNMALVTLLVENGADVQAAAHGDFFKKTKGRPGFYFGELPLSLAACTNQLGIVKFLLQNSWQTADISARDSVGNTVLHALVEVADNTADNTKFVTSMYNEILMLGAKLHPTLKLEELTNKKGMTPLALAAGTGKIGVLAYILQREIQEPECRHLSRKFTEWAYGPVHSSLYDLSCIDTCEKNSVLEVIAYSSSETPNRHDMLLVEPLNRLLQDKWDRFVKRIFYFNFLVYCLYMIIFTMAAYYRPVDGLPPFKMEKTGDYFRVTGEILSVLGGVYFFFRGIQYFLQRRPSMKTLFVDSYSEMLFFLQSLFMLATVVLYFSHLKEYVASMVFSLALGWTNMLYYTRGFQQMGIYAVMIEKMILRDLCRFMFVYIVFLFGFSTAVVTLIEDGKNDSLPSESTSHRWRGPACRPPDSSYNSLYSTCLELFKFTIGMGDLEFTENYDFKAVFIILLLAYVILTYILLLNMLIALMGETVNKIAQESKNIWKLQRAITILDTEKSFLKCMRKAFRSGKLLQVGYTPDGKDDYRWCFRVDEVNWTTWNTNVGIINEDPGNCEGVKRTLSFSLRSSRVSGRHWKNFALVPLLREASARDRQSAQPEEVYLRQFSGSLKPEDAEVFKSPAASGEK
Transient receptor potential cation channel subfamily V member 4 (Homo sapiens), sequence (Q9HBA0 whole entry): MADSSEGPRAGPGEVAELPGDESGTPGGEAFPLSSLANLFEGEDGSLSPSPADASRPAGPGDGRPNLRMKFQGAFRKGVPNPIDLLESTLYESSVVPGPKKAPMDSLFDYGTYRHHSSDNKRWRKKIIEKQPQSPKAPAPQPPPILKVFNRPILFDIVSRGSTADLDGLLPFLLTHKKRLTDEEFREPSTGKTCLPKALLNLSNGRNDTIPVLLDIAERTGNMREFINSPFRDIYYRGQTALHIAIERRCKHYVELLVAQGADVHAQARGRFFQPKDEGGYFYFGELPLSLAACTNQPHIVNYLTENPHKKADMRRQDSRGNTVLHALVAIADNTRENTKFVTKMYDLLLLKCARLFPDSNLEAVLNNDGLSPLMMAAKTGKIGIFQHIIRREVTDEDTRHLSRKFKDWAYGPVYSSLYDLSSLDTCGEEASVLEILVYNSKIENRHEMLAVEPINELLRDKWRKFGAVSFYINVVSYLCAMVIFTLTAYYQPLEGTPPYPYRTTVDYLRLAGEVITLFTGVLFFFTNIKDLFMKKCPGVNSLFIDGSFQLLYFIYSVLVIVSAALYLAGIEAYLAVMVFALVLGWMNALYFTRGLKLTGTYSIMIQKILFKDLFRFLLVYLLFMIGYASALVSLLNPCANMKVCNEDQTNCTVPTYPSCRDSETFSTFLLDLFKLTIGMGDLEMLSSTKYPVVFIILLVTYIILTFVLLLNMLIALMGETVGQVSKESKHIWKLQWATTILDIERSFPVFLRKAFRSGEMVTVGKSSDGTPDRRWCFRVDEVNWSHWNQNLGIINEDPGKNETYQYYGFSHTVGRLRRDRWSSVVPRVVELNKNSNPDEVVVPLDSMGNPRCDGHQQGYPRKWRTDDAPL
Transient receptor potential cation channel subfamily M member 8 (Homo sapiens), Q7Z2W7 [Y745H], sequence (Q7Z2W7 whole entry Y745H): as the sequence (Q7Z2W7 whole entry) above, with Y745H counted along it

As for `C=CCc1cc(OC)c(OC(C)C(OCCCCCCCCCC)c2ccc(O)c(OC)c2)c(OC)c1` (configuration not stated), in assay [1], the EC50 is 66 nM.

For the molecule `C=CCc1cc(OC)c(OC(C)C(OCCCCCCCC)c2ccc(O)c(OC)c2)c(OC)c1` (configuration not stated), the EC50 in [1] came to 86 nM.

With `C=CCc1cc(OC)c(O[C@H](C)[C@H](OCC)c2ccc(O)c(OC)c2)c(OC)c1`, in assay [1], the EC50 stood at 583 nM.

On to `C=CCc1cc(OC)c(OC(C)C(OC)c2ccc(O)c(OC)c2)c(OC)c1` (configuration not stated), for which the EC50 in assay [1] turned out to be 3450 nM.

For the molecule `C=CCc1cc(OC)c(O[C@@H](C)[C@H](OCC)c2ccc(O)c(OC)c2)c(OC)c1`, the EC50 in [1] is 1130 nM.

As for `CC(C)[C@@H]1CC[C@@H](C)C[C@H]1O` [LEVOMENTHOL], in [2], the EC50 came to 96000 nM. Besides, the outcome in assay [3] was Active.

In the case of `C=CCc1cc(OC)c(OC(C)C(O[C@H]2C[C@@H](C)CC[C@@H]2C(C)C)c2ccc(O)c(OC)c2)c(OC)c1` (some centres not stated), the EC50 in [1] was found to be 11 nM.

`C=CCc1cc(OC)c(OC(C)C(OCCCCCC)c2ccc(O)c(OC)c2)c(OC)c1` (configuration not stated): in assay [1], the EC50 turned out to be 329 nM.

For `C=CCc1cc(OC)c(O[C@H](C)[C@@H](OCC)c2ccc(O)c(OC)c2)c(OC)c1`, the EC50 in assay [1] came out at 1150 nM.

Take `C=CCc1cc(OC)c(O[C@H](C)[C@@H](OC(C)=O)c2ccc(O)c(OC)c2)c(OC)c1`: the EC50 in assay [1] is more than 10000 nM.

Regarding `C=CCc1cc(OC)c(OC(C)C(OCC(C)C)c2ccc(O)c(OC)c2)c(OC)c1` (configuration not stated), the EC50 in [1] came to 138 nM.

On to `C=CCc1cc(OC)c(OC(C)C(O)c2ccc(O)c(OC)c2)c(OC)c1` (racemic), for which the EC50 in assay [1] is more than 10000 nM.

Consider `C=CCc1cc(OC)c(O[C@H](C)[C@@H](O)c2ccc(OC)c(OC)c2)c(OC)c1`, for which, in assay [1], the EC50 was more than 10000 nM.

Consider `C=CCc1cc(OC)c(OC(C)C(OCC)c2ccc(O)c(OC)c2)c(OC)c1` (mixture of isomers), for which the outcome in assay [4], in assay [5] and in assay [8] was inactive. In addition, the outcome in [6], in assay [7] and in assay [9] was Active. The EC50 in [2] was 19100 nM; in [1], 332 nM.

`C=CCc1cc(OC)c(OC(C)C(OCCOCCCC)c2ccc(O)c(OC)c2)c(OC)c1` (configuration not stated): the EC50 in assay [1] worked out at 153 nM.

On to `C=CCc1cc(OC)c(O[C@H](C)[C@@H](OC(C)=O)c2ccc(OC)c(OC)c2)c(OC)c1`, for which the EC50 in assay [1] was more than 10000 nM.

On to `C=CCc1cc(OC)c(OC(C)C(O[C@@H]2C[C@H](C)CC[C@H]2C(C)C)c2ccc(O)c(OC)c2)c(OC)c1` (some centres not stated), for which, in assay [1], the EC50 amounted to 28 nM.

In the case of `C=CCc1cc(OC)c(OC(C)C(OC2CCCCC2)c2ccc(O)c(OC)c2)c(OC)c1` (configuration not stated), the EC50 in assay [1] is 54 nM.

Turning to `C=CCc1cc(OC)c(OC(C)C(OC(C)C)c2ccc(O)c(OC)c2)c(OC)c1` (configuration not stated), the EC50 in assay [1] was 82 nM.
